Measured values as given in ChEMBL document CHEMBL1201862, “PubChem BioAssay data set” (2004).
Calls of active or inactive are those of the source.

How the values were obtained:
[1] = inhibitors of Vif binding to APOBEC3G peptide, primary screen, biochemical, TR-FRET, GST-Vif 1-94, biotin-A3G peptide, dose response retest (AID 1117319); format: functional;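 also: TR-FRET signal of purified GST-Vif binding a biotinylated A3G peptide; inhibitors lower the FRET signal by blocking Vif and A3G binding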
[2] = target: Heat shock protein HSP 90-alpha (Homo sapiens, UniProt P07900); assay: Luminescence-based dose response biochemical high throughput screening assay for inhibitors of the Heat Shock Protein 90 (HSP90). [Related pubchem assays: 1831 (Summary AID.), 1846 (Confirmation screen.), 1789 (Primary screen.)]
[3] = Vero cell cytotoxicity, dose response, cytotoxicity control for Vif-APOBEC3G degradation inhibitor project, Vero cells (AID 1117358); format: functional; settings: Human immunodeficiency virus 1, Vero
[4] = microbe, parasite or virus in culture; format: functional; settings: Mycobacterium tuberculosis
[5] = M. tuberculosis growth inhibition, HTS (AID 449762); format: functional

In the case of `CC(C)NC(=O)C1CCCN(S(=O)(=O)c2cccs2)C1` (stereo unspecified), the IC50 [1] was > 100 µM (active).

In the case of `CC(=O)CSc1nnc(-c2ccc3c(c2)OCO3)o1`, the IC50 [2] was 9.39 µM (active).

In the case of `CC(C)(C)c1ccc(-c2nnc(SCCC#N)n2C2CCCC2)cc1`, the CC50 [3] was > 40 µM (active).

For `C/C(=N\NC(=O)c1cc2c(s1)CCC(C)C2)c1ccncc1` (stereo unspecified), the CC50 [4] was > 40 µM (active) and the IC50 [5] was > 100 µM (active).

For `CCCc1ncc(CN2CCCC(C(=O)Nc3ccc(-c4cccc(OC)c4)cc3)C2)cn1` (stereo unspecified), the IC50 [5] was > 100 µM (active).
